# In patent US11230526B1, “Cylcoalkenyl derivatives useful as agonists of the GPR120 and/or GPR40 receptors” (Janssen Pharmaceutica NV, priority 2018, dated 2022):
# Legend:
# Type in all cases: cell-based
# Human GPR120 short form [1] = target: T1, Human GPR120 short form (Homo sapiens, UniProt Q5NUL3); test: Human GPR120 calcium flux assay, Procedure Calcium A (2500 cells/well)
# T1 construct: expressed in transfected cells
# T1 sequence (Q5NUL3 1-361): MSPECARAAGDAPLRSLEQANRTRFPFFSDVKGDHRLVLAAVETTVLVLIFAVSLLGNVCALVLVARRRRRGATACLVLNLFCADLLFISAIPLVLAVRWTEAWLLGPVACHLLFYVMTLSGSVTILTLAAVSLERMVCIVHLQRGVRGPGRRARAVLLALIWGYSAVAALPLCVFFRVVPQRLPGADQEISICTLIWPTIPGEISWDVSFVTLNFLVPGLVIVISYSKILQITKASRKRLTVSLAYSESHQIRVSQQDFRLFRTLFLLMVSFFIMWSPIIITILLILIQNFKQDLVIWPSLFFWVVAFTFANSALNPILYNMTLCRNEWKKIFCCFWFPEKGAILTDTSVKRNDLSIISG
# Source text: Human GPR120 in Calcium Flux Assay
# This in vitro assay serves to assess test compound agonist activity against the short splice variant (SVS with Accession number NM_001195755.1 confirmed by sequencing data) of the GPR120 receptor. The Human Short splice variant #2 (NM_001195755.1) is missing an in-frame coding exon compared to variant 1 (the Human Long splice variant NM_181745.3), resulting in a shorter isoform (GPR120-S) lacking a 16 aa protein segment compared to isoform GPR120-L. The assay platform utilizes HEK-293 cells stably transfected to express the Human GPR120 short form. These cells are first loaded with the Ca^+2 sensitive dye, Fluo-4 NW. Upon stimulation, intracellular released Ca^+2 can bind to the dye and alter its fluorescence intensity. This increase in fluorescence signal, and thus the flux in intracellular [Ca^2+], is detected and quantitated by fluorescence imaging using a FLIPR reader. The effect of the agonist is measured as a function of concentration and used to calculate an EC50 based upon a response curve.
# In this procedure 2500 cells/well were employed.
# A Human GPR120 clone (Genbank accession number NM_001195755.1) was placed into the pcDNA3.1 mammalian expression vector carrying the neomycin resistance gene. A stable mammalian cell was generated by placing the above clone into a HEK293 background. Clonal cells responding to long chain fatty acids had expression levels of GPR120 confirmed by RT-qPCR. Human HEK-GPR120 cells were cultured in Dulbecco's Modified Eagle's Medium (DMEM)/F12 medium supplemented with 10% fetal bovine serum (FBS), 1% L-Glutamine and 1% penicillin/streptomycin and 0.5 mg/ml G-418. Cells were split 2 times a week to keep the cells in the log-phase growth.
# In preparation for the assay, HEK cells stably transfected with Human GPR120 (2.5K cells per well in 25 uL growth medium) were seeded into 384-well plates and then incubated overnight (37° C., 5% CO2). The next day, the media was changed to 20 μL assay buffer and the cell starved for 1 h at 37° C. The dye loading solution (2× dye) was prepared using 10 mL assay buffer, 100 μL of 250 mM probenecid, 1 bottle of Component A, and 20 μl of dye in DMSO. Twenty μL of the 2× dye loading buffer was then added to each well. The plates were incubated at 37° C. for 30 min, then at room temperature for an additional 15 minutes, before performing the assay on FLIPR.
# The assay was performed on a FLIPR plate reader using the following parameters. Baseline was read for 10 seconds at 1 sec intervals. The program was set to transfer 10 μL of ligand from compound plate to cell plate after baseline reading. Aspiration was executed at: 10 μL/sec speed, 4.6 μL height, Dispensing was executed at: 30 μL/sec speed, 45 μL height. After compound addition, each well was read for 300 sec, with measurements collected at 1 sec intervals.
# The kinetic data from the FLIPR was based upon a 5 minute window for data collection. The fluorescence of each sample well was used for individual calculations of a normalized RFU value, which was defined as maximum response minus the minimum response. The normalized fluorescence reading (RFU) was calculated as follows: RFU=Fmax−Fmin
# The Fitting Equation was: Y=Bottom+(Top-Bottom)/(1+10^((Log EC50−X)*HillSlope)), where X is the log of the concentration and Y is the response.
# Human GPR120 short form [2] = target: T1, Human GPR120 short form; test: Human GPR120 calcium flux assay, Procedure Calcium B (4200 cells/well)
# Method in brief: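 HEK293 cells stably expressing human GPR120 (NM_001195755.1), 4200 cells/well, starved 1 h and loaded with Fluo-4 NW plus probenecid. Ligand-evoked calcium flux read on FLIPR for 300 s after a 10 s baseline. RFU = Fmax−Fmin; EC50 from four-parameter concentration-response fit.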
# human GPR40 = target: T2, human GPR40 (Homo sapiens, UniProt O14842); test: GPR40 calcium flux assay, human GPR40; details: HEK293 cells stably expressing GPR40; table does not say human or rat
# T2 construct: expressed in transfected cells
# Method in brief: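 Cells preincubated 1 h at 37° C. in HBSS, 20 mM HEPES, 0.1% BSA, then Fluo 8 calcium dye 30 min at 37° C. and 15 min at room temperature.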
# T2 sequence (O14842 whole entry): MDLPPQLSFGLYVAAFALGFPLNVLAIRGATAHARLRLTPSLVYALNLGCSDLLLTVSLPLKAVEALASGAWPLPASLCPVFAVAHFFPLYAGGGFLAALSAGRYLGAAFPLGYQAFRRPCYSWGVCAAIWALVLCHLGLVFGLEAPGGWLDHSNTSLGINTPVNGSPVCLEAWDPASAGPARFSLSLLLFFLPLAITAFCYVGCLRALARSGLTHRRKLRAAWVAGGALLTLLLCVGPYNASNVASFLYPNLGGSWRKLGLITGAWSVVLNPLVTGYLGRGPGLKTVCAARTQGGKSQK
SMILES,EC50 (Human GPR120 short form [1]) [nM],EC50 (Human GPR120 short form [2]) [nM],EC50 (human GPR40) [nM]
"Cc1c(CCC(=O)O)ccc(OCC2=C(c3ccsc3)CCC2)c1C [Compound 22, 3-(2,3-dimethyl-4-((2-(thiophen-3-yl)cyclopent-1-en-1-yl)methoxy)phenyl)Propanoic Acid]",> 20000,–,> 5000
"Cc1c(CCC(=O)O)ccc(OCC2=C(c3ccc(S(C)(=O)=O)cc3)CCC2)c1C [Compound 74, 3-[2,3-dimethyl-4-[[2-(4-methylsulfonylphenyl)cyclopenten-1-yl]methoxy]phenyl]Propanoic Acid]",> 20000,–,> 10000
"O=C(O)CCc1ccc(OCC2=C(c3ccc(Cl)cc3)CCCC2)cc1 [Compound 517, 3-[4-[[2-(4-chlorophenyl)cyclohexen-1-yl]methoxy]phenyl]Propanoic Acid]",> 5000,–,> 5000
"CC(=O)Nc1ccc(C2=C(COc3ccc(CCC(=O)O)c(C)c3C)CCCC2)cc1 [Compound 495, 3-[4-[[2-(4-acetamidophenyl)cyclohexen-1-yl]methoxy]-2,3-dimethyl-phenyl]Propanoic Acid]",> 5000,–,> 5000
"COc1cc(C2=C(COc3ccc(CCC(=O)O)c(C)c3C)CCC2)ccc1C [Compound 113, 3-(4-((2-(3-methoxy-4-methylphenyl)cyclopent-1-en-1-yl)methoxy)-2,3-dimethylphenyl)Propanoic Acid]",> 5000,–,> 5000
O=C(O)CCc1ccc(OCC2=C(c3ccc(Cl)cc3)CCC2O)c(F)c1F (stereo not drawn) [Compound 45],> 20000,–,> 5000
"Cc1c(CCC(=O)O)ccc(OCC2=C(c3ccc([S+](C)[O-])cc3)CCCC2)c1C (stereo not drawn) [Compound 507, 3-[2,3-dimethyl-4-[[2-(4-methylsulfinylphenyl)cyclohexen-1-yl]methoxy]phenyl]Propanoic Acid]",> 5000,–,> 10000
"CCOc1ccc(C2=C(COc3ccc(CCC(=O)O)c(C)c3C)CCC2)cc1 [Compound 151, 3-[4-[[2-(4-ethoxyphenyl)cyclopenten-1-yl]methoxy]-2,3-dimethyl-phenyl]Propanoic Acid]",> 5000,–,> 5000
"COc1ccc(C2=C(COc3ccc(CCC(=O)O)c(C)c3C)CCC2)cc1 [Compound 21, 3-(4-((2-(4-methoxyphenyl)cyclopent-1-en-1-yl)methoxy)-2,3-dimethylphenyl)Propanoic Acid]",> 20000,–,> 5000
"CCCc1ccc(C2=C(COc3ccc(CCC(=O)O)c(C)c3C)CCC2)cc1 [Compound 140, 3-[2,3-dimethyl-4-[[2-(4-propylphenyl)cyclopenten-1-yl]methoxy]phenyl]Propanoic Acid]",> 5000,–,> 5000
"Cc1c(CCC(=O)O)ccc(OCC2=C(c3ccc(S(C)(=O)=O)cc3)CCCC2)c1C [Compound 515, 3-[2,3-dimethyl-4-[[2-(4-methylsulfonylphenyl)cyclohexen-1-yl]methoxy]phenyl]Propanoic Acid]",> 5000,–,> 5000

# Next, values leading:
EC50 (Human GPR120 short form [1]) [nM],EC50 (Human GPR120 short form [2]) [nM],EC50 (human GPR40) [nM],SMILES
1330,475,> 5000,"Cc1c(CCC(=O)O)ccc(OCC2=C(c3ccc(I)cc3)CCCC2)c1C [Compound 476, 3-[4-[[2-(4-iodophenyl)cyclohexen-1-yl]methoxy]-2,3-dimethyl-phenyl]Propanoic Acid]"
> 5000,–,> 5000,"Cc1c(CCC(=O)O)ccc(OCC2=C(c3cccc(N(C)C)c3)CCC2)c1C [Compound 114, 3-[4-[[2-[3-(dimethylamino)phenyl]cyclopenten-1-yl]methoxy]-2,3-dimethyl-phenyl]Propanoic Acid]"
4810,1620,> 5000,"CCCc1ccc(C2=C(COc3ccc(CCC(=O)O)c(C)c3C)CCCC2)cc1 [Compound 463, 3-[2,3-dimethyl-4-[[2-(4-propylphenyl)cyclohexen-1-yl]methoxy]phenyl]Propanoic Acid]"
895,327,> 5000,"Cc1cc(OCC2=C(c3ccc(Cl)cc3)CCC2)cc(C)c1CCC(=O)O [Compound 119, 3-(4-((2-(4-chlorophenyl)cyclopent-1-en-1-yl)methoxy)-2,6-dimethylphenyl)Propanoic Acid]"
4610,755,> 5000,"Cc1c(CCC(=O)O)ccc(OCC2=C(c3ccc(C(C)C)cc3)CCCC2)c1C [Compound 516, 3-[4-[[2-(4-isopropylphenyl)cyclohexen-1-yl]methoxy]-2,3-dimethyl-phenyl]Propanoic Acid]"
1120,852,> 5000,"Cc1ccc(C2=C(COc3ccc(CCC(=O)O)c(C)c3C)CCC2)cc1[N+](=O)[O-] [Compound 115, 3-(2,3-dimethyl-4-((2-(4-methyl-3-nitrophenyl)cyclopent-1-en-1-yl)methoxy)phenyl)Propanoic Acid]"
2780,668,> 5000,"Cc1c(CCCC(=O)O)ccc(OCC2=C(c3ccc(Cl)cc3)CCC2)c1C [Compound 127, 4-[4-[[2-(4-chlorophenyl)cyclopenten-1-yl]methoxy]-2,3-dimethyl-phenyl]Butanoic Acid]"
4480,2270,> 5000,"Cc1c(CCC(=O)O)ccc(OCC2=C(c3ncccn3)CCCC2)c1C [Compound 475, 3-[2,3-dimethyl-4-[(2-pyrimidin-2-ylcyclohexen-1-yl)methoxy]phenyl]Propanoic Acid]"
97,67,> 5000,"Cc1c(CCC(=O)O)ccc(OCC2=C(c3ccc(Cl)c(F)c3)CCC2)c1C [Compound 157, 3-(4-((2-(4-chloro-3-fluorophenyl)cyclopent-1-en-1-yl)methoxy)-2,3-dimethylphenyl)Propanoic Acid]"
1180,256,> 5000,"Cc1ccc(C2=C(COc3ccc(CCC(=O)O)cc3C)CCCC2)cn1 [Compound 477, 3-[3-methyl-4-[[2-(6-methyl-3-pyridyl)cyclohexen-1-yl]methoxy]phenyl]Propanoic Acid]"
2260,1360,–,"CCOc1ccc(C2=C(COc3ccc(CCC(=O)O)c(C)c3C)CCCC2)cc1 [Compound 461, 3-[4-[[2-(4-ethoxyphenyl)cyclohexen-1-yl]methoxy]-2,3-dimethyl-phenyl]Propanoic Acid]"
1340,1250,–,"Cc1c(CCC(=O)O)ccc(OCC2=C(c3ccccc3Cl)CCCC2)c1C [Compound 464, 3-[4-[[2-(2-chlorophenyl)cyclohexen-1-yl]methoxy]-2,3-dimethyl-phenyl]Propanoic Acid]"
2450,2470,–,"Cc1c(CCC(=O)O)ccc(OCC2=C(c3ccncc3)CCC2)c1C [Compound 139, 3-[2,3-dimethyl-4-[[2-(4-pyridyl)cyclopenten-1-yl]methoxy]phenyl]Propanoic Acid]"
